# Measurements published in US10519177B2, “Heterocyclic compounds and uses thereof” (Plexxikon Inc., priority 2013, dated 2019).
# System: bromodomain
# Assay: at least one of the bromodomain cell assays of Example 57
# Assay type: cell-based
# Details: at least one of the bromodomain cell assays described in Example 57; read-out: IC50 in at least one of the bromodomain cell assays
row,IC50 [µM],Compound
1,< 10,"Cc1noc(C)c1-c1cnc2c(F)cn([C@@H](c3ccccc3)c3ccccn3)c2c1 [P-0712, 4-[3-fluoro-1-[(S)-phenyl(2-pyridyl)methyl]pyrrolo[3,2-b]pyridin-6-yl]-3,5-dimethyl-isoxazole]"
2,< 10,"Cc1noc(C)c1-c1cnc2c(-c3ccc(CC(=O)O)cc3)cn(CC3(C)CCCCC3)c2c1 [P-0781, 2-[4-[6-(3,5-dimethylisoxazol-4-yl)-1-[(1-methylcyclohexyl)methyl]pyrrolo[3,2-b]pyridin-3-yl]phenyl]acetic acid]"
3,< 10,"Cc1noc(C)c1-c1ccc2c(-c3ccc(C(=O)O)cc3)cn([C@H](c3ccccc3)c3ccccn3)c2c1 [P-0755, 4-[6-(3,5-dimethylisoxazol-4-yl)-1-[(R)-phenyl(2-pyridyl)methyl]indol-3-yl]benzoic acid]"
4,< 10,"Cc1noc(C)c1-c1cnc2c(c1)c(C(c1ccccn1)c1ccccn1)cn2-c1ccc(CO)cc1 [P-0736, [4-[3-[bis(2-pyridyl)methyl]-5-(3,5-dimethylisoixazol-4-yl)pyrrolo[2,3-b]pyridin-1-yl]phenyl]methanol]"
5,< 10,"Cc1noc(C)c1-c1cnc2c(-c3ccc(C(=O)O)cc3)cn(CC3(C)COC3)c2c1 [P-0767, 4-[6-(3,5-dimethylisoxazol-4-yl)-1-[(3-methyloxetan-3-yl)methyl]pyrrolo[3,2-b]pyridin-3-yl]benzoic acid]"
6,< 10,"[2H]C([2H])([2H])c1ccc(-c2cn(CC3CCCCC3)c3cc(-c4c(C)noc4C)cnc23)cc1 [P-0785, 4-[1-(cyclohexylmethyl)-3-[4-(trideuteriomethyl)phenyl]pyrrolo[3,2-b]pyridin-6-yl]-3,5-dimethyl-isoxazole]"
7,< 10,"Cc1ccc(-c2cn([C@@H](c3ccccn3)C3CCCCC3)c3cc(-c4c(C)noc4C)cnc23)cc1 [P-0817, 4-[1-[(R)-cyclohexyl(2-pyridyl)methyl]-3-(p-tolyl)pyrrolo[3,2-b]pyridin-6-yl]-3,5-dimethyl-isoxazole]"
8,< 10,"Cc1noc(C)c1-c1cnc2c(-c3ccc(C#N)nc3)cn([C@@H](c3ccccc3)c3ccccn3)c2c1 [P-0720, 5-[6-(3,5-dimethylisoxazol-4-yl)-1-[(S)-phenyl(2-pyridyl)methyl]pyrrolo[3,2-b]pyridin-3-yl]pyridine-2-carbonitrile]"
9,< 10,"Cc1noc(C)c1-c1ccc2c(-c3ccc(P(=O)(O)O)cc3)cn(CC3CCC(F)(F)CC3)c2c1 [P-0747, [4-[1-[(4,4-difluorocyclohexyl)methyl]-6-(3,5-dimethylisoxazol-4-yl)indol-3-yl]phenyl]phosphonic acid]"
10,< 10,"Cc1noc(C)c1-c1cnc2c(-c3ccc(CC(=O)O)cc3)cn(CC3CCOCC3)c2c1 [P-0771, 2-[4-[6-(3,5-dimethylisoxazol-4-yl)-1-(tetrahydropyran-4-ylmethyl)pyrrolo[3,2-b]pyridin-3-yl]phenyl]acetic acid]"
11,< 10,"COC(=O)c1ccc(-c2cn(CC3CC4CC4C3)c3cc(-c4c(C)noc4C)cnc23)cc1 (centres unmarked) [P-0609, methyl 4-[1-(3-bicyclo[3.1.0]hexanylmethyl)-6-(3,5-dimethylisoxazol-4-yl)pyrrolo[3,2-b]pyridin-3-yl]benzoate]"
12,< 10,"Cc1noc(C)c1-c1cnc2c(c1)c(C(c1ccccn1)c1ccccn1)cn2-c1ccc(C(=O)O)cn1 [P-0737, 6-[3-[bis(2-pyridyl)methyl]-5-(3,5-dimethylisoxazol-4-yl)pyrrolo[2,3-b]pyridin-1-yl]pyridine-3-carboxylic acid]"
13,< 10,"Cc1noc(C)c1-c1cnc2c(-c3ccc(CO)cc3)cn(CC3CCCCC3)c2c1 [P-0704, [4-[1-(cyclohexylmethyl)-6-(3,5-dimethylisoxazol-4-yl)pyrrolo[3,2-b]pyridin-3-yl]phenyl]methanol]"
14,< 10,"Cc1noc(C)c1-c1ccc2c(-c3ccc(B(O)O)cc3)cn(CC3CCC(F)(F)CC3)c2c1 [P-0749, [4-[1-[(4,4-difluorocyclohexyl)methyl]-6-(3,5-dimethylisoxazol-4-yl)indol-3-yl]phenyl]boronic acid]"
15,< 10,"Cc1noc(C)c1-c1cnc2c(-c3ccc(C(=O)O)cc3)cn([C@@H](c3ccccn3)C3CCCCC3)c2c1 [P-0816, 4-[1-[(R)-cyclohexyl(2-pyridyl)methyl]-6-(3,5-dimethy7lisoxazol-4-yl)pyrrolo[3,2-b]pyridin-3-yl]benzoic acid]"
16,< 10,"Cc1noc(C)c1-c1ccc2c(-c3ccc(C#N)nc3)cn([C@H](c3ccccc3)c3ccccn3)c2c1 [P-0758, 5-[6-(3,5-dimethylisoxazol-4-yl)-1-[(R)-phenyl(2-pyridyl)methyl]indol-3-yl]pyridine-2-carbonitrile]"
17,< 10,"Cc1noc(C)c1-c1cnc2c(-c3ccc(C(=O)OC(C)C)cc3)cn(CC3CCC(F)(F)CC3)c2c1 [P-0618, isopropyl 4-[1-[(4,4-difluorocyclohexyl)methyl]-6-(3,5-dimethylisoxazol-4-yl)pyrrolo[3,2-b]pyridin-3-yl]benzoate]"
18,< 10,"Cc1noc(C)c1-c1cnc2c(-c3ccc([N+](=O)[O-])nc3)cn([C@H](c3ccccc3)c3ccccn3)c2c1 [P-0730, 3,5-dimethyl-4-[3-(6-nitro-3-pyridyl)-1-[(R)-phenyl(2-pyridyl)methyl]pyrrolo[3,2-b]pyridin-6-yl]isoxazole]"

row,IC50 [µM],Compound
1,< 10,"Cc1noc(C)c1-c1cnc2c(-c3ccc4c(c3)COC4=O)cn(CC3CCCCC3)c2c1 [P-0797, 5-[1-(cyclohexylmethyl)-6-(3,5-dimethylisoxazol-4-yl)pyrrolo[3,2-b]pyridin-3-yl]-3H-isobenzofuran-1-one]"
2,< 10,"Cc1ccc(-c2cn([C@@H](c3ccccc3)c3ccccn3)c3cc(-c4c(C)noc4C)ccc23)cc1 [P-0789, 3,5-dimethyl-4-[1-[(S)-phenyl(2-pyridyl)methyl]-3-(p-tolyl)indol-6-yl]isoxazole]"
3,< 10,"Cc1ccc(-c2cn([C@H](c3ccccc3)c3ccccn3)c3cc(-c4c(C)noc4C)cnc23)cc1 [P-0725, 3,5-dimethyl-4-[1-[(R)-phenyl(2-pyridyl)methyl]-3-(p-tolyl)pyrrolo[3,2-b]pyridin-6-yl]isoxazole]"
4,< 10,"Cc1noc(C)c1-c1cnc2c(c1)c(C(c1ccccn1)c1ccccn1)cn2C(F)F [P-0734, 4-[3-[bis(2-pyridyl)methyl]-1-(difluoromethyl)pyrrolo[2,3-b]pyridin-5-yl]-3,5-dimethyl-isoxazole]"
5,< 10,"Cc1noc(C)c1-c1cnc2c(c1)c(C(c1ccccc1)c1ccccc1)cn2-c1ccc(CO)cc1 [P-0741, [4-[3-benzhydryl-5-(3,5-dimethylisoxazol-4-yl)pyrrolo[2,3-b]pyridin-1-yl]phenyl]methanol]"
6,< 10,"Cc1noc(C)c1-c1cnc2c(-c3ccc(C4(C(=O)O)CC4)cc3)cn(CC3CCOCC3)c2c1 [P-0772, 1-[4-[6-(3,5-dimethylisoxazol-4-yl)-1-(tetrahydropyran-4-ylmethyl)pyrrolo[3,2-b]pyridin-3-yl]phenyl]cyclopropanecarboxylic acid]"
7,< 10,"Cc1noc(C)c1-c1cnc2[nH]cc(C(c3ccccc3)c3ccccc3)c2c1 [P-0738, 4-(3-benzhydryl-1H-pyrrolo[2,3-b]pyridin-5-yl)-3,5-dimethyl-isoxazole]"
8,< 10,"Cc1noc(C)c1-c1cnc2[nH]cc(C(c3ccccn3)c3ccccn3)c2c1 [P-0733, 4-[3-[bis(2-pyridyl)methyl]-1H-pyrrolo[2,3-b]pyridin-5-yl]-3,5-dimethyl-isoxazole]"
9,< 10,"COc1cc(-c2cn(CC3CCC(F)(F)CC3)c3cc(-c4c(C)noc4C)ccc23)ccc1C(=O)O [P-0746, 4-[1-[(4,4-difluorocyclohexyl)methyl]-6-(3,5-dimethylisoxazol-4-yl)indol-3-yl]-2-methoxy-benzoic acid]"
10,< 10,"[2H]C([2H])([2H])c1ccc(-c2cn([C@@H](c3ccccc3)c3ccccn3)c3cc(-c4c(C)noc4C)cnc23)cc1 [P-0786, 3,5-dimethyl-4-[1-[(S)-phenyl(2-pyridyl)methyl]-3-[4-(trideuteriomethyl)phenyl]pyrrolo[3,2-b]pyridin-6-yl]isoxazole]"
11,< 10,"Cc1noc(C)c1-c1cnc2c(-c3ccc(C4(C(=O)O)CC4)cc3)cn(CC3CCCCC3)c2c1 [P-0702, 1-[4-[1-(cyclohexylmethyl)-6-(3,5-dimethylisoxazol-4-yl)pyrrolo[3,2-b]pyridin-3-yl]phenyl]cyclopropanecarboxylic acid]"
12,< 10,"Cc1cc(-c2cnc3c(-c4ccc(C(=O)O)cc4)cn(CC4CCC(F)(F)CC4)c3c2)cn(C)c1=O [P-0613, 4-[1-[(4,4-difluorocyclohexyl)methyl]-6-(1,5-dimethyl-6-oxo-3-pyridyl)pyrrolo[3,2-b]pyridin-3-yl]benzoic acid]"
13,< 10,"Cc1noc(C)c1-c1cnc2c(-c3ccc(C(=O)O)cc3)cn(C(c3ccccc3)c3ccccc3)c2c1 [P-0620, 4-[1-benzhydryl-6-(3,5-dimethylisoxazol-4-yl)pyrrolo[3,2-b]pyridin-3-yl]benzoic acid]"
14,< 10,"Cc1noc(C)c1-c1cnc2c(-c3cnn(C)c3)cn([C@H](c3ccccc3)c3ccccn3)c2c1 [P-0732, 3,5-dimethyl-4-[3-(1-methylpyrazol-4-yl)-1-[(R)-phenyl(2-pyridyl)methyl]pyrrolo[3,2-b]pyridin-6-yl]isoxazole]"
15,< 10,"Cc1noc(C)c1-c1ccc2c(-c3cnn(C)c3)cn(S(=O)(=O)C3CCCC3)c2c1 [P-0231, 4-[1-cyclopentyl-sulfonyl-3-(1-methyl-pyrazol-4-yl)indol-6-yl]-3,5-dimethyl-isoxazole]"
16,< 10,"Cc1noc(C)c1-c1cnc2c(-c3cnn(C)c3)cn([C@@H](c3ccccc3)c3ccccn3)c2c1 [P-0721, 3,5-dimethyl-4-[3-(1-methylpyrazol-4-yl)-1-[(S)-phenyl(2-pyridyl)methyl]pyrrolo[3,2-b]pyridin-6-yl]isoxazole]"
17,< 10,"Cc1cc(-c2ccc3c(-c4ccc(C(=O)O)cc4)cn([C@@H](C)c4ccccn4)c3c2)cn(C)c1=O [P-0762, 4-[6-(1,5-dimethyl-6-oxo-3-pyridyl)-1-[(1S)-1-(2-pyridyl)ethyl]indol-3-yl]benzoic acid]"
